Measurements taken from US11952365B2, “Anti-viral compounds” (Aligos Therapeutics, Inc., priority 2020, dated 2024).
Like-named read-outs stand apart in the source and are kept apart here.

How the values were obtained:
HRV3C = HRV3C (Human rhinovirus 14, UniProt P03303); assay: HRV3C protease assay (duplex, SAMDI-MS); type: biochemical, HRV; conditions: HRV3C, 30 mins preincubation, read-out: HRV IC50
Procedure, shortened: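 HRV3C was preincubated 30 min with compound alongside 3CLpro at ambient temperature, then two biotinylated peptide substrates were added for 30 min. Quenching used 0.5% formic acid (final). Cleaved product was captured on neutravidin SAMDI arrays and quantified by MALDI-TOF as product/internal-standard AUC ratio; IC50 from four-parameter fit.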

[1] = tested on: human beta-coronavirus OC43; assay: microbe, parasite or virus in culture; type: cell-based; conditions: Betacoronavirus 1, OC43, HeLa, 144 h, OC43 in HeLa cells, 6 days at 33° C., read-out: EC50
[2] = Cytotoxicity plates without OC43 virus (cell-titer-glo); type: cell-based, human; conditions: human; HeLa cells without OC43 virus, class symbols
Procedure, shortened: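 Run as a virus-free counterpart of the OC43 cytopathic-effect assay. Attached HeLa cells received compound dilutions in EMEM with 2% FBS and were kept 6 days at 33 °C. Cell viability was then measured by CellTiter-Glo luminescence.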

[3] = tested on: SARS-CoV-2-GHB-03021/2020; assay: SARS-CoV-2 Infection Model in Huh7 Cells; type: cell-based; conditions: Severe acute respiratory syndrome coronavirus 2, Huh-7, 96 h, SARS-CoV-2, day 4 p.i., MTS
[4] = tested on: SARS-CoV-2-GHB-03021/2020; assay: microbe, parasite or virus in culture; type: cell-based; conditions: Severe acute respiratory syndrome coronavirus 2, Vero C1008, 96 h; read-out: VeroE6 + CP (EC50)
human cathepsin L = target: T1, human cathepsin L (Homo sapiens, UniProt P07711); assay: cathepsin L assay; type: biochemical; conditions: 10 pM human cathepsin L, Z-FR-AMC 2 μM, class symbols
T1 construct: purchased R&D Systems
Procedure, shortened: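 Reactions began by adding 2 μM (final) Z-FR-AMC substrate to 10 pM human cathepsin L that had been preincubated 30 min with inhibitor. Kinetic AMC fluorescence at 355/460 nm over 30 min at 2-min intervals; four-parameter fitting gave IC50 values.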

in vitro [5] = conditions: human
in vitro [6] = conditions: African green monkey, VeroE6 + CP (CC50), Vero E6-eGFP cells with CP-100356, absence of virus, MTS
3CLpro = 3CLpro (Severe acute respiratory syndrome coronavirus 2, UniProt P0DTD1); assay: SARS-CoV-2 3CLpro protease assay (duplex, SAMDI-MS); type: biochemical; design: For the duplex assay, 3CLpro and HRV3C was added; conditions: 3CLpro, 30 mins preincubation, class symbols; read-out: SARS-Cov-2 IC50

Row | SMILES | IC50 (HRV3C; class symbols) [µM] | EC50 ([1]; class symbols) [nM] | CC50 at 6 days [2] [µM] | EC50 ([3]; class symbols) [nM] | EC50 [4] [nM] | IC50 (human cathepsin L) [µM] | CC50 (in vitro [5]) [µM] | CC50 (in vitro [6]; numeric bounds) [µM] | IC50 (3CLpro) [nM] | IC50 (HRV3C; bound) [µM] | EC50 ([3]; numeric bounds) [nM] | EC50 ([1]; bound) [nM] | CC50 (in vitro [6]; class symbols) [µM]
1 | CSc1cccc2[nH]c(C(=O)N3C[C@@H]4CCC[C@@H]4[C@H]3C(=O)N[C@@H](C[C@@H]3CCNC3=O)C(=O)CO)cc12 [Compound 154, (1S,3aR,6aS)—N—((S)-4-hydroxy-3-oxo-1-((S)-2-oxopyrrolidin-3-yl)butan-2-yl)-2-(4-(methylthio)-1H-indole-2-carbonyl)octahydrocyclopenta[c]pyrrole-1-carboxamide] | 2 to 20 | 100 to 1000 | > 10 | < 1000 | 1000 to 10000 | ≥ 10 | > 50 | > 50 | < 20 | – | – | – | –
2 | CS(=O)(=O)Oc1cccc2[nH]c(C(=O)N3C[C@@H]4CCC[C@@H]4[C@H]3C(=O)N[C@@H](C[C@@H]3CCNC3=O)C(=O)CO)cc12 [Compound 155, 2-[(1S,3aR,6aS)-1-{[(2S)-4-hydroxy-3-oxo-1-[(3S)-2-oxopyrrolidin-3-yl]butan-2-yl]carbamoyl}-hexahydro-1H-cyclopenta[c]pyrrole-2-carbonyl]-1H-indol-4-yl methanesulfonate] | – | 1000 to 10000 | > 10 | – | 10000 to 100000 | ≥ 10 | > 50 | > 50 | 20 to 200 | > 10 | > 50000 | – | –
3 | O=C1NCC[C@H]1C[C@H](NC(=O)[C@@H]1[C@H]2CCC[C@H]2CN1C(=O)c1cc2c(Cl)ccc(Cl)c2[nH]1)C(=O)CO [Compound 156, (1S,3aR,6aS)-2-(4,7-dichloro-1H-indole-2-carbonyl)-N-[(2S)-4-hydroxy-3-oxo-1-[(3S)-2-oxopyrrolidin-3-yl]butan-2-yl]-hexahydro-1H-cyclopenta[c]pyrrole-1-carboxamide] | – | 100 to 1000 | > 10 | < 1000 | < 1000 | ≥ 10 | > 50 | > 50 | < 20 | > 10 | – | – | –
4 | COc1cc(Cl)c(Cl)c2[nH]c(C(=O)N3C[C@@H]4CCC[C@@H]4[C@H]3C(=O)N[C@@H](C[C@@H]3CCNC3=O)C(=O)CO)cc12 [Compound 158, (1S,3aR,6aS)-2-(6,7-dichloro-4-methoxy-1H-indole-2-carbonyl)-N-[(2S)-4-hydroxy-3-oxo-1-[(3S)-2-oxopyrrolidin-3-yl]butan-2-yl]-hexahydro-1H-cyclopenta[c]pyrrole-1-carboxamide] | 2 to 20 | 100 to 1000 | > 10 | < 1000 | < 1000 | ≥ 10 | > 10 | > 50 | < 20 | – | – | – | –
5 | O=C1NCC[C@H]1C[C@H](NC(=O)[C@@H]1[C@H]2CCC[C@H]2CN1C(=O)c1cc2c([nH]1)CCS2(=O)=O)C(=O)CO [Compound 159, (1S,3aR,6aS)-2-{1,1-dioxo-2H,3H,4H-1λ6-thieno[3,2-b]pyrrole-5-carbonyl}-N-[(2S)-4-hydroxy-3-oxo-1-[(3S)-2-oxopyrrolidin-3-yl]butan-2-yl]-hexahydro-1H-cyclopenta[c]pyrrole-1-carboxamide] | – | – | > 10 | – | 10000 to 100000 | ≥ 10 | > 50 | > 50 | 20 to 200 | > 10 | > 10000 | > 10000 | –
6 | O=C1NCC[C@H]1C[C@H](NC(=O)[C@@H]1[C@H]2CCC[C@H]2CN1C(=O)c1cc2c(Cl)cc(Cl)c(F)c2[nH]1)C(=O)CO [Compound 160, (1S,3aR,6aS)-2-(4,6-dichloro-7-fluoro-1H-indole-2-carbonyl)-N—((S)-4-hydroxy-3-oxo-1-((S)-2-oxopyrrolidin-3-yl)butan-2-yl)octahydrocyclopenta[c]pyrrole-1-carboxamide] | – | 100 to 1000 | > 10 | < 1000 | < 1000 | ≥ 10 | > 10 | > 50 | < 20 | > 10 | – | – | –
7 | O=C1NCC[C@H]1C[C@H](NC(=O)[C@@H]1[C@H]2CCC[C@H]2CN1C(=O)c1cc2c(Cl)cc(C(F)(F)F)cc2[nH]1)C(=O)CO [Compound 161, (1S,3aR,6aS)-2-[4-chloro-6-(trifluoromethyl)-1H-indole-2-carbonyl]-N-[(2S)-4-hydroxy-3-oxo-1-[(3S)-2-oxopyrrolidin-3-yl]butan-2-yl]-hexahydro-1H-cyclopenta[c]pyrrole-1-carboxamide] | – | < 100 | > 10 | < 1000 | 1000 to 10000 | ≥ 10 | > 10 | > 50 | 20 to 200 | > 10 | – | – | –
8 | O=C1NCC[C@H]1C[C@H](NC(=O)[C@@H]1[C@H]2CCC[C@H]2CN1C(=O)c1cc2c(Cl)cc(F)c(Cl)c2[nH]1)C(=O)CO [Compound 162, (1S,3aR,6aS)-2-(4,7-dichloro-6-fluoro-1H-indole-2-carbonyl)-N-[(2S)-4-hydroxy-3-oxo-1-[(3S)-2-oxopyrrolidin-3-yl]butan-2-yl]-hexahydro-1H-cyclopenta[c]pyrrole-1-carboxamide] | 2 to 20 | < 100 | > 10 | < 1000 | < 1000 | ≥ 10 | > 50 | > 50 | < 20 | – | – | – | –
9 | COc1cc(C(F)(F)F)cc2[nH]c(C(=O)N3C[C@@H]4CCC[C@@H]4[C@H]3C(=O)N[C@@H](C[C@@H]3CCNC3=O)C(=O)CO)cc12 [Compound 163, (1S,3aR,6aS)—N—((S)-4-hydroxy-3-oxo-1-((S)-2-oxopyrrolidin-3-yl)butan-2-yl)-2-(4-methoxy-6-(trifluoromethyl)-1H-indole-2-carbonyl)octahydrocyclopenta[c]pyrrole-1-carboxamide] | 2 to 20 | < 100 | > 10 | 1000 to 10000 | 1000 to 10000 | ≥ 10 | > 50 | > 50 | < 20 | – | – | – | –
10 | O=C(NC1CC1)C(=O)[C@H](C[C@@H]1CCNC1=O)NC(=O)[C@@H]1CC2(CCN1C(=O)c1cc3c(F)cccc3[nH]1)CC2 [Compound 164] | 0.2 to 2 | 1000 to 10000 | > 10 | – | 10000 to 100000 | 1 to 10 | 1 to 10 | > 50 | < 20 | – | > 10000 | – | –
11 | O=C(NC1CC1)C(=O)[C@H](C[C@@H]1CCNC1=O)NC(=O)[C@@H]1CC2(CCN1C(=O)c1cc3ccccc3s1)CC2 [Compound 165] | 0.2 to 2 | 100 to 1000 | > 10 | < 1000 | < 1000 | 1 to 10 | > 10 | > 50 | 20 to 200 | – | – | – | –
12 | O=C(NCCOC1CCCC1)C(=O)[C@H](C[C@@H]1CCNC1=O)NC(=O)[C@@H]1[C@H]2CCC[C@H]2CN1C(=O)c1cc2c(Cl)cc(Cl)cc2[nH]1 [Compound 166] | – | 100 to 1000 | > 10 | < 1000 | < 1000 | 1 to 10 | 1 to 10 | – | < 20 | > 10 | – | – | > 10
13 | N#C[C@H](C[C@@H]1CCNC1=O)NC(=O)[C@@H]1[C@H]2CCC[C@H]2CN1C(=O)c1cc2c(Cl)ccc(Cl)c2[nH]1 [Compound 167, (1S,3aR,6aS)—N-[(1S)-1-cyano-2-[(3S)-2-oxopyrrolidin-3-yl]ethyl]-2-(4,7-dichloro-1H-indole-2-carbonyl)-hexahydro-1H-cyclopenta[c]pyrrole-1-carboxamide] | – | 100 to 1000 | > 10 | < 1000 | < 1000 | ≥ 10 | > 10 | > 50 | 200 to 2000 | > 10 | – | – | –
14 | O=C1NCC[C@H]1C[C@H](NC(=O)[C@@H]1[C@H]2CCC[C@H]2CN1C(=O)c1cc2c(Cl)ccc(-c3ccccc3)c2[nH]1)C(=O)CO [Compound 168, (1S,3aR,6aS)-2-(4-chloro-7-phenyl-1H-indole-2-carbonyl)-N-[(2S)-4-hydroxy-3-oxo-1-[(3S)-2-oxopyrrolidin-3-yl]butan-2-yl]-hexahydro-1H-cyclopenta[c]pyrrole-1-carboxamide] | – | 1000 to 10000 | > 10 | 1000 to 10000 | 1000 to 10000 | ≥ 10 | > 10 | > 50 | 200 to 2000 | > 10 | – | – | –
